Our source for the activity, pest or weed control and melting point values is US9060519B2, “Insecticidally active pyridyl-thiazole and pyridyl-thiadiazole derivatives” (Syngenta Participations AG, priority 2011, dated 2015).

Where only a bound is given, the exact number is not on record here.

By pest or weed control is commonly meant the degree to which the test organism was suppressed or injured, in per cent. A low value points to a weak effect. For orientation: melting point means the temperature of the solid-liquid transition.

The subject of one data set is Plutella xylostella (diamond back moth). Kind of data set: Plutella xylostella (larvicide, feeding/residual contact activity, preventive). It counts as in vivo. The following applies: 200 ppm; artificial diet in MTP, L2 larvae; larval mortality, antifeedant, growth regulation after 5 days. The procedure:
Plutella xylostella (Diamond Back Moth) (Larvicide, Feeding/Residual Contact Activity, Preventive) 24-well microtiter plate (MTP) with artificial diet was treated with test solutions by pipetting. After drying, the MTP's were infested with larvae (L2)(10-15 per well). After an incubation period of 5 days, samples were checked for larval mortality, antifeedant and growth regulation.
For the molecule `C/C(=N\Oc1ccc(C#N)cn1)c1sc(-c2cccnc2)nc1C` [Compound 1.012], the activity entry is on record as “over 80%”.

The subject of another data set is Myzus persicae (green peach aphid). Briefly: Activity against Myzus persicae (mixed population, feeding/residual contact activity, preventive). The following applies: foliar, 144 h, sunflower leaf discs sprayed, aphids of mixed ages, mortality after 6 days. It counts as in vivo. Here is the method:
Activity against Myzus persicae (Green Peach Aphid)
(Mixed Population, Feeding/Residual Contact Activity, Preventive)
Sunflower leaf discs were placed on agar in a 24-well microtiter plate and sprayed with test solutions. After drying, the leaf discs were infested with an aphid population of mixed ages. After an incubation period of 6 days, samples were checked for mortality.
For the molecule `C/C(=N\Oc1ncccn1)c1cnc(-c2cccnc2)s1` [Compound 1.041, 1-[2-(3-pyridyl)thiazol-5-yl]-N-pyrimidin-2-yloxy-ethanimine], the pest or weed control at 200 ppm is > 80%. Take `CC/C(=N\Oc1nc(C)cc(C)n1)c1sc(-c2cccnc2)nc1Cl` [Compound 1.047]: the pest or weed control at 200 ppm is > 80%. The same measure, in the same setting: under `COCc1cc(C)nc(O/N=C(\C)c2sc(-c3cccnc3)nc2C)n1` [Compound 1.032] stands > 80%; under `C/C(=N\Oc1cc(Cl)cnc1Cl)c1sc(-c2cccnc2)nc1C` [Compound 1.008], > 80%. As for `COc1cc(OC)nc(O/N=C(\C)c2sc(-c3cccnc3)nc2Cl)n1` [Compound 1.058, 1-[4-chloro-2-(3-pyridyl)thiazol-5-yl]-N-(4,6-dimethoxypyrimidin-2-yl)oxy-ethanimine], the pest or weed control at 200 ppm is > 80%. Still for that read-out and setting: under `C/C(=N\Oc1ncccc1SC(C)C)c1sc(-c2cccnc2)nc1C` [Compound 1.056] stands > 80%; under `C/C(=N\Oc1nc(C)cc(C)n1)c1sc(-c2cccnc2)nc1Cl` [Compound 1.057], > 80%. Still for that read-out and setting: the figure for `CC/C(=N\Oc1ncccn1)c1sc(-c2cccnc2)nc1Cl` [Compound 1.048] is > 80%; for `C/C(=N\Oc1nc(C)cc(C)n1)c1sc(-c2cccnc2)nc1C` [Compound 1.010] it is > 80%; for `COc1cnc(O/N=C(\C)c2sc(-c3cccnc3)nc2C)nc1` [Compound 1.014] it is > 80%. With `CC/C(=N\Oc1nc(OC)cc(OC)n1)c1sc(-c2cccnc2)nc1Cl` [Compound 1.049], the pest or weed control at 200 ppm is > 80%. The same measure, in the same setting: under `C/C(=N\Oc1ncccn1)c1sc(-c2cccnc2)nc1Cl` [Compound 1.050] stands > 80%. For `C/C(=N\Oc1nccc(C)n1)c1sc(-c2cccnc2)nc1C` [Compound 1.029], the pest or weed control at 200 ppm is > 80%. In the case of `C/C(=N\Oc1ncccn1)c1sc(-c2cccnc2)nc1C` [Compound 1.013], the pest or weed control at 200 ppm is > 80%.

For the molecule `COc1cc(OC)nc(O/N=C(\C)c2sc(-c3cccnc3)nc2C)n1` [Compound 1.009], the pest or weed control at 200 ppm is > 80%. The same measure, in the same setting: under `COc1nc(OC)nc(O/N=C(\C)c2sc(-c3cccnc3)nc2C)n1` [Compound 1.060] stands > 80%.

Tested on in the next data set: not given
Assay: not given
Details: not given
In turn, `COc1cc(OC)nc(O/N=C(/c2sc(-c3cccnc3)nc2Cl)C(F)(F)F)n1` [Compound 1.043] displayed a melting point of 109 to 111 °C. With `COc1ccc(O/N=C(\C)c2sc(-c3cccnc3)nc2C)nn1` [Compound 1.005], the melting point fell in the range of 167 to 169 °C. Regarding `C#CCOc1ccc(O/N=C(\C)c2sc(-c3cccnc3)nc2C)nn1` [Compound 1.002], the melting point fell in the range of 152 to 154 °C.

Molecule `Cc1cc(C)nc(O/N=C(/c2sc(-c3cccnc3)nc2Cl)C2CC2)n1` [Compound 1.045] had a melting point of 53 to 55 °C.

On to `C/C(=N\Oc1ncc([N+](=O)[O-])cn1)c1sc(-c2cccnc2)nc1C` [Compound 1.018], for which the melting point is 174 to 176 °C. For `Clc1nc(-c2cccnc2)sc1/C(=N/Oc1ncccn1)C1CC1` [Compound 1.044], the melting point lay within 127 to 130 °C. The same measure, in the same setting: the figure for `C/C(=N\Oc1ncc(C(F)(F)F)cn1)c1sc(-c2cccnc2)nc1C` [Compound 1.015] is 165 to 166 °C; for `COc1ccc(Cl)c(-c2ccc(O/N=C(\C)c3sc(-c4cccnc4)nc3C)nn2)c1` [Compound 1.003] it is 169 to 171 °C. The same measure, in the same setting: the figure for `C/C(=N\Oc1ccc(C)nn1)c1sc(-c2cccnc2)nc1C` [Compound 1.004] is 179 to 181 °C; for `CSc1cc(F)cnc1O/N=C(\C)c1sc(-c2cccnc2)nc1C` [Compound 1.055] it is 149 to 151 °C. Still for that read-out and setting: under `C/C(=N\Oc1ccc2nnc(C)n2n1)c1sc(-c2cccnc2)nc1C` [Compound 1.001] stands 200 to 202 °C. In the case of `C/C(=N\Oc1ncccc1Cl)c1sc(-c2cccnc2)nc1C` [Compound 1.007], the melting point is 126 to 128 °C.
